Results on three compounds are retold here after PMC8012331, “Drug-induced hepatic steatosis in absence of severe mitochondrial dysfunction in HepaRG cells: proof of multiple mechanism-based toxicity” (Cell Biology and Toxicology, 2020).

One data set deals with ATP citrate lyase (ACLY). Description: RT-qPCR ACLY mRNA in HepaRG cells. The class given is cell-based, human. Conditions: 4 days, vs control. The protocol:
(§1) Total RNA was extracted with the Nucleospin RNA isolation system purchased from Macherey-Nagel (Düren, Germany), which included a DNase treatment step. Quantification of isolated RNAs was assessed using a Nanodrop 1000 (Thermo Fisher Scientific, Waltham, MA). RNAs were reverse-transcribed into cDNAs using the High-Capacity cDNA Reverse Transcription Kit purchased from Applied Biosystems (Woolston, UK). Gene expression was assessed by real-time quantitative PCR analysis (RT-qPCR) using SYBR Green PCR Master Mix (Applied Biosystems) and a 384-well QuantStudio™ 7 Flex Real-Time PCR System (Thermo Fisher Scientific). Sequences of the primers used to measure gene expression are presented in Supplementary Table 3. Expression of GAPDH was chosen as reference and the 2^−ΔΔCt calculation method was used to express the relative expression of each selected gene.
In general terms: Quantitative PCR measures a nucleic acid by following its amplification.

The test system of data set [1] is stearoyl-CoA desaturase 1 (hSCD1). Description: RT-qPCR hSCD1 mRNA in HepaRG cells. The class given is cell-based, human. The note with it: 4 days, vs control. The protocol:
as §1

In data set [2] the test system is de novo lipogenesis (DNL). Briefly: DNL from [2-14C]acetic acid in HepaRG cells. It counts as cell-based, human. The note with it: 4 days, vs control. The protocol: (§2) Experiments were carried out on passages 9 to 16. […] DPEN was dissolved in water.
DNL was assessed by measuring newly synthesized radiolabeled lipids from [2-^14C]acetic acid, using a protocol adapted from Byrne et al. ([2014]). Briefly, culture medium was removed and cells were washed with warm PBS. Next, cells were incubated for 3 h with phenol red-free William’s E medium containing 1% fatty acid-free BSA, [2-^14C]acetic acid (1850 Bq per well, corresponding to 19.4 pM) and 50 μM cold acetic acid. Medium was then gently removed and cells were washed with warm PBS before adding a mix of hexane/isopropanol (3:2; v/v). Cell culture plates were sealed and incubated for 1 h at room temperature for lipid extraction. After transfer of the plate content in 200-μL microtubes, hexane and PBS were added to have a hexane/isopropanol/PBS ratio of 6:2:3 (v/v/v). Microtubes were then centrifuged at 1000×g for 5 min and radiolabeled lipids were counted in the upper phase with a Tri-Carb 4910TR liquid scintillation counter (PerkinElmer). Results were normalized to total protein content and expressed in comparison to control cells.

The test system of data set [3] is HepaRG cells. Description: Neutral lipids with Nile red in HepaRG cells. The note with it: 4 days, selected concentrations (ATP loss < 30%, not above 100 × Cmax), vs control. The protocol:
(§3) Briefly, HepaRG cells were seeded in 96-well plates at a density of 2.6 × 10^4 cells/cm^2 and were first incubated in William’s E medium supplemented with 10% FBS (50% FBS from Eurobio and 50% FBS from GE Healthcare), 100 U/mL penicillin, 100 μg/mL streptomycin, 2 mM glutamine, 5 μg/mL insulin, and 50 μM hydrocortisone hemisuccinate. […] During this 1-month period, the culture medium was renewed three times a week. […] HepaRG cells were next cultured in the same FBS/DMSO conditions and incubated for 4 days with each drug at different concentrations. Culture medium was renewed every day and all investigations were performed after 96 h (i.e., 24 h after the fourth treatment). These investigations were mostly performed in 96-well plates except for western blot analysis, for which 6-well plates were used. Experiments were carried out on passages 9 to 16. All drugs (except DPEN), etomoxir, lomitapide, tunicamycin, thapsigargin, and TUDCA were dissolved in DMSO. DPEN was dissolved in water.
(§4) Cells were then incubated with PBS containing 0.1 μg/mL Nile red for 30 min and washed once. […] For each well, four pictures were taken at a magnification of × 20 and analyzed with Columbus software (PerkinElmer) for quantification. These pictures were always taken in four different areas around the center of each well, and these areas were the same from one well to another, as programmed by the Columbus software. This software was also designed to count only living cells after exclusion of dying cells harboring nuclei with abnormal shape or altered Hoechst intensity. […] Neutral lipids were then normalized per number of nuclei and expressed relative to control cells. Examples of images used for neutral lipid quantification are shown in Supplementary Fig. 2.

A further data set relates to apoB secretion. Description: apoB level in culture medium (ELISA), HepaRG cells. The class given is cell-based, human. Conditions: 4 days; for Effect on apoB secretion: culture medium, vs control. The protocol:
as §2
Twenty-four hours after the last treatment, cell supernatants were removed and stored at − 80 °C until use for apolipoprotein measurement. ApoB level was measured using the Human Apolipoprotein B ELISA^pro kit from Mabtech (Nacka Strand, Sweden), according to the manufacturer’s instructions. Briefly, 50 μL of samples were diluted 2× in Apo ELISA buffer before a 2-h incubation in the precoated strip plates provided in the kit. The plates were washed and incubated 1 h with the biotinylated monoclonal anti-human apoB (LDL-11-biotin) antibody. The plates were then washed and incubated 1 h with a streptavidin–horseradish peroxidase conjugated antibody. After another washing, 3,3′,5,5′-tetramethylbenzidine (TMB) was used as substrate for 15 min before adding a stop solution. Absorbance at 450 nm was then measured using a POLARstar Omega microplate reader (BMG Labtech, Ortenberg). ApoB level was calculated utilizing a four-parameter standard curve, and normalized to the total cellular protein content and expressed in comparison to control cells.

For data set [4] the following is noted: cited from earlier work; for Cmax: read-out: Maximum plasma concentration (Cmax) in patients.
Data set [5] has as its system mitochondrial fatty acid oxidation (mtFAO). Description: mtFAO with [U-14C]palmitic acid in HepaRG cells. It counts as cell-based, human. The note with it: 4 days, vs control. As to the method:
as §2
Results were normalized to total protein content determined using the Pierce BCA assay kit from Thermo Fischer Scientific (Waltham, MA). Results were expressed in comparison to control cells.

A short description of data set [6]: Maximum plasma concentration (Cmax) in patients. It counts as in vivo, human.
In data set [7] the test system is fatty acid translocase (FAT, also known as CD36). Briefly: RT-qPCR FAT/CD36 mRNA in HepaRG cells. The note with it: 4 days. It counts as cell-based, human. The protocol:
as §1

For data set [8] the following is noted: treated patients, cited from earlier work.
Data set [9] has as its system HepaRG cells. Description: Cellular ATP level (CellTiter-Glo) in HepaRG cells. The class given is cell-based, human. The note with it: 4 days, vs controls. The protocol: Cellular ATP level was measured using the CellTiter-Glo® Luminescent Cell Viability assay purchased from Promega (Charbonnières, France), according to the manufacturer’s instructions. Briefly, control and treated HepaRG cells were first washed with warm PBS and kept for 30 min at room temperature in phenol red-free William’s E medium. Cells were next incubated with the CellTiter-Glo® reagent for 10 min at room temperature. Cells were then transferred in opaque-walled multiwell plates and the luminescent signal was quantified using a POLARstar Omega microplate reader (BMG Labtech, Ortenberg, Germany). Results were expressed in comparison to control cells.
In general terms: Cellular ATP, detected with luciferase, serves as a proxy for viable cell number.

A further data set has as its system apoC3 secretion. Briefly: apoC3 level in culture medium (HTRF), HepaRG cells. The note with it: 4 days. The class given is cell-based, human. The protocol:
as §3
Apolipoprotein C3 (apoC3) level was measured using the Human Apolipoprotein C3 kit from Cisbio Bioassays (Codolet, France), according to the manufacturer’s instructions. Briefly, 10 μL of supernatants was incubated with two different specific anti-human apoC3 antibodies, one donor and one acceptor. The detection principle of apoC3 is based on HTRF® (Homogeneous Time Resolved Fluorescence), a time-resolved FRET (Förster Resonance Energy Transfer) technology. After 2 h of incubation, light emission was measured with the Infinite F Nano+ microplate reader (Tecan, Männedorf, Switzerland). ApoC3 level was calculated utilizing standard curve, based on the ratio of A665 nm/A615 nm, and normalized to the total cellular protein content. Results were expressed in comparison to control cells.
For orientation: In TR-FRET formats the signal depends on donor and acceptor labels being close together.

In a further data set the test system is ERN1 (IRE1α). Briefly: RT-qPCR ERN1 mRNA in HepaRG cells. The class given is cell-based, human. Conditions: 4 days, vs control. The protocol:
as §1

For a further data set, the system named is apolipoprotein B (APOB). Briefly: RT-qPCR APOB mRNA in HepaRG cells. It counts as cell-based, human. Conditions: 4 days, vs control. As to the method:
as §1

Data set [10] relates to microsomal triglyceride transfer protein (MTTP). Briefly: RT-qPCR MTTP mRNA in HepaRG cells. The class given is cell-based, human. The note with it: 4 days, vs control. As to the method:
as §1

Data set [11] deals with apolipoprotein C3 (APOC3). Briefly: RT-qPCR APOC3 mRNA in HepaRG cells. The class given is cell-based, human. The note with it: 4 days, vs control. The protocol: as §1
The test system of data set [12] is angiopoietin-like 3 (ANGPTL3). Description: RT-qPCR ANGPTL3 mRNA in HepaRG cells. Conditions: 4 days, vs control. It counts as cell-based, human. As to the method: as §1
For data set [13], the system named is primary human hepatocytes (PHH). Description: Neutral lipids with Nile red in primary human hepatocytes. It counts as cell-based. The note with it: 4 days. As to the method:
Primary human hepatocytes (PHH) were purchased from Biopredic International (Saint-Grégoire, France). Cells were seeded by the supplier in coated 96-well plates at a density of 5 × 10^4 cells/well. Upon receipt, culture medium was removed and replaced by William’s E medium supplemented as previously described for HepaRG cell differentiation, except for DMSO set at 1%. After 2–3 days, cells were treated as for HepaRG cells. For HepaRG cells and PHH, cells were always maintained in incubators at 37 °C with 5% CO2 and saturating humidity.
as §4

Setting [14] is: high dose chemotherapy, ref Holmboe L et al., Br J Clin Pharmacol. 2012;73(1):106-14.
[15] abbreviates: rheumatoid arthritis treatment, ref Hoekstra M et al., J Rheumatol. 2004;31(4):645-8.

Values joined by “and” are separate entries in the source; they are usually repeats but may differ in a detail not shown here. Equal values may be shown once. Read-outs that look alike come from different tables or passages of the source.

Consider `CCCCc1oc2ccccc2c1C(=O)c1cc(I)c(OCCN(CC)CC)c(I)c1` [AMIO, amiodarone], for which the “ACLY mRNA level” value in the data set with ATP citrate lyase (ACLY) is given as “enhanced mRNA level”. Besides, the “hSCD1 mRNA level” value in data set [1] is given as “enhanced mRNA level”. For the same compound, the “Effect on DNL” value in data set [2] was “increased DNL”. In the data set on HepaRG cells [3], the “Accumulation of neutral lipids (steatosis)” value (“Accumulation” for short) is reported as “significant accumulation of neutral lipids”.

With `CN(Cc1cnc2nc(N)nc(N)c2n1)c1ccc(C(=O)N[C@@H](CCC(=O)O)C(=O)O)cc1` [METHO, methotrexate], in the data set with apoB secretion, the “Effect on apoB secretion” value is on record as “did not reduce”. For the same compound, the “Maximum plasma concentration (Cmax) in patients” value is no more than 680000 ng/mL in [4] (setting [14]) and no more than 594 ng/mL in data set [4] (setting [15]). The Cmax in [4] (setting [14]) was no more than 1500 µM; in data set [4] (setting [15]) it was no more than 1.3 µM. The “Effect on mtFAO” value in data set [5] was “significantly enhance mtFAO”. The “Effect on DNL” value in data set [2] is recorded as “curb this metabolic pathway”. In addition, the figures for the “Concentration corresponding to 100xCmax” value in data set [6] (from Cmax of high dose chemotherapy) and in [6] (from Cmax of rheumatoid arthritis treatment) were 150000 µM and 130 µM, respectively. Besides, the “Increase of FAT/CD36 mRNA level” value in data set [7] (50 μM) is reported as 60%; in data set [7] (150 μM) it was 55%. Also, the “Accumulation” value in the data set with HepaRG cells [3] was “significant accumulation of neutral lipids”. For the same compound, the “Therapeutic blood (or plasma) concentration in patients” value in data set [8] (ref Schulz M et al., Crit Care 2012 ;16(4):R136, listed as Methotrexate (METHO)) is 0.04 mg/L and 0.09 µM. Also, in the data set with HepaRG cells [9], the “Loss of cellular ATP relative to the maximum concentration selected for the study” value is given as 150 µM (loss of cellular ATP below 30% of the controls for this concentration, as shown in Supp. fig 1).

Regarding `Cc1c(C)c2c(c(C)c1O)CCC(C)(COc1ccc(CC3SC(=O)NC3=O)cc1)O2` (stereo not drawn) [TRO, troglitazone], in the data set on apoC3 secretion (45 and 47.5 μM), the “Secretion of apoC3” value was “less than 10 % of the respective control”. Besides, the “Effect on apoC3 secretion” value in the data set with apoC3 secretion (culture medium, vs control) is on record as “reduced the secretion”. Further, in the data set with ERN1 (IRE1α), the “ERN1 (IRE1α) mRNA level” value is reported as “enhanced IRE1α mRNA level”. Also, the “APOB mRNA level” value in the data set on apolipoprotein B (APOB) is “nearly abolish the mRNA abundance”. Moreover, in the data set on apoB secretion (45 and 47.5 μM), the “Secretion of apoB” value is “less than 10 % of the respective control”. In addition, the “Effect on apoB secretion” value with apoB secretion is “reduced the secretion”. For the same compound, in data set [4] (patients, ref given per drug), the “Maximum plasma concentration (Cmax) in patients” value was no more than 2830 ng/mL and the Cmax is no more than 6.4 µM. In addition, in data set [10], the “MTTP mRNA level” value is “nearly abolish the mRNA abundance”. Further, the “APOC3 mRNA level” value in [11] was “nearly abolish the mRNA abundance”. The “ANGPTL3 mRNA level” value in data set [12] is listed as “nearly abolish the mRNA abundance”. Moreover, the “Steatosis in PHH batches (six batches tested)” value in [13] was “induced steatosis in only one PHH batch”. Besides, the “Effect on mtFAO” value in data set [5] is “significantly enhance mtFAO”. Also, the “Effect on DNL” value in data set [2] is listed as “curb this metabolic pathway”. In addition, the “Concentration corresponding to 100xCmax” value in data set [6] (worked out from cited Cmax in patients) stood at 640 µM. Besides, the “Accumulation” value in the data set with HepaRG cells [3] is “significant accumulation of neutral lipids”. For the same compound, the “Therapeutic blood (or plasma) concentration in patients” value in [8] (ref Loi CM et al., J Clin Pharmacol 1999;39(9):920-6, Plosker GL and Faulds D. Drugs 1999;57(3):409-438, listed as Troglitazone (TRO)) is 0.90 - 2.82 mg/L and 2.0 - 6.4 µM. Further, the “Loss of cellular ATP relative to the maximum concentration selected for the study” value in the data set on HepaRG cells [9] is reported as 47.5 µM (loss of cellular ATP above 30% of the controls for higher concentrations, as shown in Supp. fig 1).
